Assays:
Set-up in all cases: species or system AML cell lines (8); Primary HTS, single concentration about 10 uM, Cell Titer Glo viability; log10 luminescence, per cent inhibition relative to cycloheximide control
Settings in all cases: 72 h, relative to cycloheximide control, log10 luminescence; inhibitor
ML-2 = tested on: ML-2
U937 = tested on: U937
CMS = tested on: CMS
MOLM-13 = tested on: MOLM-13
M07e = tested on: M07e
MV4-11 = tested on: MV4-11
CMK = tested on: CMK
CHRF288-11 = tested on: CHRF288-11

| SMILES | ML-2 %inh (ML-2) [%] | U937 %inh (U937) [%] | CMS %inh (CMS) [%] | MOLM-13 %inh (MOLM-13) [%] | M07e %inh (M07e) [%] | MV4-11 %inh (MV4-11) [%] | CMK %inh (CMK) [%] | CHRF288-11 %inh (CHRF288-11) [%] |
| --- | --- | --- | --- | --- | --- | --- | --- | --- |
| O=C1NC(=N[C@@H](CO)Cc2ccccc2)S/C1=C\c1ccc2ncccc2c1 [SJ000581019-1] | 8.345 | 18.33 | 8.828 | 62.37 | 15.21 | 35.98 | 99.34 | 42.52 |
| O=C1NC(=N[C@H](CO)Cc2ccccc2)S/C1=C\c1ccc2ncccc2c1 [SJ000581019-2] | 1.703 | 7.541 | 2.2 | 1.796 | 7.526 | 1.969 | 5.29 | 7.52 |
| Nc1c(C(=O)c2cccc(OC[C@H](O)CO)c2)cnn1-c1ccc(F)cc1 [SJ000581020-1] | 2.034 | 0.3347 | 0.9092 | 0.004587 | 2.292 | 0.9707 | 3.324 | 2.337 |
| COc1ccc(F)cc1C(=O)c1cnc(NC2CCN(S(C)(=O)=O)CC2)nc1N [SJ000581021-1] | 16.42 | 26.91 | 25.29 | 27.57 | 26.32 | 23.41 | 28.45 | 14.05 |
| Cn1cc(C2=C(c3c4n(c5ccccc35)CCC(CN)CC4)C(=O)NC2=O)c2ccccc21 (stereo not shown) [SJ000581022-1] | 3.751 | 3.425 | 0.653 | 2.979 | 8.854 | 5.378 | 2.783 | 0.7803 |
| CS(=O)(=O)CCn1c(=O)c(Oc2ccc(F)cc2F)cc2cnc(NC3CCOCC3)nc21 [SJ000581023-1] | 0.4592 | -0.5257 | -0.4321 | -0.00779 | 1.483 | 1.997 | 0.4611 | 8.185 |
| Cn1c(=O)c(Oc2ccc(F)cc2F)cc2cnc(NC(CO)CO)nc21 [SJ000581024-1] | 0.9662 | 3.277 | -1.976 | 0.3413 | 1.393 | 1.357 | -1.172 | -0.0002567 |
| CC(=O)N[C@@H](Cc1ccc(OP(=O)(O)O)cc1)C(=O)N[C@H]1CCC(=O)N2CCC[C@@H](C(=O)NCc3ccccc3)N2C1=O [SJ000581025-1] | 0.2617 | 0.2421 | 0.9205 | 0.5747 | -1.273 | -4.371 | -3.468 | 3.231 |
| CNCC1CCn2c(c(C3=C(c4cn(C)c5ccccc45)C(=O)NC3=O)c3ccccc32)C1 (stereo not shown) [SJ000581026-1] | 5.596 | 3.941 | 2.453 | 5.409 | 4.053 | 3.218 | 19.67 | 5.735 |
| COc1cc[nH]c1/C=C1\C(=O)Nc2ccccc21 [SJ000581028-1] | 2.572 | -1.475 | -2.846 | 93.27 | 0.1646 | 72.48 | 2.429 | 5.171 |
| Cn1cc(C2=C(c3cn(CCCN)c4ccccc34)C(=O)NC2=O)c2ccccc21 [SJ000581029-1, RO 31-7549] | -0.6707 | 0.8505 | -0.005694 | 8.447 | -0.4351 | 2.189 | 7.447 | 63.26 |
| COc1cc(F)c(F)cc1C(=O)c1cnc(NC2CCN(S(C)(=O)=O)CC2)nc1N [SJ000581030-1] | 12.87 | 15.86 | 6.337 | 17.32 | 10.16 | 13.02 | 33.04 | 9.313 |
| Cc1ccccc1-n1ncc(C(=O)c2ccccc2)c1N [SJ000581031-1] | 1.074 | 4.01 | -2.229 | 0.4251 | 0.1374 | -0.9776 | -0.4181 | -2.402 |
| Cn1c(=O)c(Cc2ccc(F)cc2F)cc2cnc(NC3CCOCC3)nc21 [SJ000581032-1] | 0.882 | -0.7764 | 0.5188 | 4.514 | 1.669 | 0.6569 | 3.89 | -3.947 |
| Nc1c(C(=O)c2cccc(CCCN3CCOCC3)c2)cnn1-c1ccc(F)cc1 [SJ000581033-1] | 2.815 | 0.5296 | -0.1935 | -0.1425 | 1.168 | -0.6007 | -2.511 | 0.5002 |
| O=C1NC(=NCCc2ccccc2Cl)S/C1=C\c1ccc2ncccc2c1 [SJ000581034-1] | 3.879 | 0.6904 | 1.664 | 1.218 | 0.7717 | -0.3328 | -2.328 | -2.34 |
| CSc1c(C2=C(c3cn(C)c4ccccc34)C(=O)NC2=O)c2ccccc2n1C [SJ000581035-1] | 21.47 | 26.62 | 16.27 | 28.45 | 31.51 | 31.9 | 87.18 | 9.742 |
| CN(C)CC#Cc1cccc(C(=O)c2cnn(-c3ccc(F)cc3)c2N)c1 [SJ000581036-1] | 0.4348 | 6.781 | 3.514 | 29.95 | 2.548 | 0.9409 | 1.135 | -3.732 |
| Nc1c(C(=O)c2cccc(-c3cccnc3)c2)cnn1-c1ccc(F)cc1 [SJ000581038-1] | 2.13 | 0.8257 | 0.2916 | 1.631 | 5.379 | 1.728 | -3.194 | -0.1911 |
| O=c1c(Oc2ccc(F)cc2F)cc2cnc(NC3CCOCC3)nc2n1C1CC1 [SJ000581039-1] | 0.3273 | -0.2909 | 3.291 | 0.2345 | 4.212 | 3.055 | 4.979 | 6.117 |

Reference: PMC6522510 (Nature Communications, 2019)
